Literature values as cited in patent US12404285B2, “KRAS G12D proteolysis targeting chimeras” (PAQ Therapeutics Inc., priority 2022, dated 2025).

Tests used:
KRAS G12C = KRAS G12C (Homo sapiens, UniProt P01116, G12C); conditions: homozygous and heterozygous tumor cells; cited from earlier work
[1] = system: tumor models harboring KRAS G12D mutations; conditions: cited from earlier work
KRAS G12D [2] = biological target: T1, KRAS G12D (Homo sapiens, UniProt P01116, G12D); conditions: switch II pocket of KRAS G12D; noncovalent; cited from earlier work
KRAS G12D [3] = biological target: T1, KRAS G12D; conditions: cited from earlier work

Compound | degradation of KRAS G12C (KRAS G12C) | in vivo efficacy [1] | binding affinity (KRAS G12D [2]) | activity in cellular assays (KRAS G12D [3])
C=C(F)C(=O)N1CCN(c2nc(OC[C@@H]3CCCN3CCCOCCC(=O)N[C@H](C(=O)N3C[C@H](O)C[C@H]3C(=O)NCc3ccc(-c4scnc4C)cc3)C(C)(C)C)nc3c2CCN(c2cccc4cccc(Cl)c24)C3)C[C@@H]1CC#N [LC-2] | can rapidly degrade KRAS G12C | – | – | –
C#Cc1c(F)ccc2cc(O)cc(-c3ncc4c(N5CC6CCC(C5)N6)nc(OC[C@@]56CCCN5C[C@H](F)C6)nc4c3F)c12 [MRTX1133] | – | in vivo efficacy | picomolar | low nanomolar
